Measured values taken from publication PMC5824708 (EJNMMI Radiopharmacy and Chemistry, 2018).

Legend:
[1] = tested on: dipeptidyl peptidase IV (DPP4); conditions: degradation by DPP4; ref Pauly et al. [1999]; cited from earlier work
Source text: The glucagon-like peptide type 1 receptor (GLP-1R) is overexpressed in virtually all benign insulinoma with high incidence and density and is considered a valuable target for the efficient visualisation by radiotracers (Reubi and Waser [2003]; Wild et al. [2011]; Wild et al. [2008]; Korner et al. [2012]). The natural ligand released from ileal L-cells, glucagon-like peptide 1 (GLP-1) stimulates the insulin secretion in β-cells by binding to the GLP-1R.

[2] = tested on: nude mice bearing CHL-GLP-1 receptor positive tumor xenografts; conditions: mouse, in vivo
Experimental: Animal studies complied with Swiss laws on animal protection and husbandry and were approved by the Veterinary office of the Canton Zurich. After an acclimatization period, tumor xenografts were produced in 6-week old female CD1 nu/nu mice by subcutaneous injection in both shoulder regions of CHL-GLP-1 receptor positive cells (8 × 10^6 cells/mouse in PBS (100 μL, pH 7.4)) under 2%–3% isoflurane anaesthesia. Ex vivo biodistribution experiments were conducted three weeks after the inoculation. PET imaging experiments were performed five weeks after the inoculation.
Tumor-bearing mice (n = 12) were injected intravenously with ^18F-2 (200 kBq in 100 μL PBS, 1.3 pmol, 5.9 ng). The animals were sacrificed at 30 min, 1 h and 2 h post injection (n = 4 for each time point). To determine specific binding an additional group of tumor-bearing mice (n = 4) received nonradioactive precursor 1 (100 μg in 100 μL PBS, 22 nmol) co-injected with ^18F-2 (266 kBq in 100 μL PBS, 1.7 pmol, 7.8 ng) and were sacrificed 1 h post injection. Organs and tissues of interest were collected and weighed, and the amount of radioactivity was determined in a γ-counter (1480 Wizard, PerkinElmer) to calculate percentage uptake (% injected dose per gram of tissue). Statistical significance was calculated using Student t-test (two populations, unpaired). P values of less than 0.05 were considered statistically significant.

[3] = tested on: CHL-GLP-1 tumor-bearing mouse; set-up: species or system mice; conditions: in vivo
Experimental: Animal studies complied with Swiss laws on animal protection and husbandry and were approved by the Veterinary office of the Canton Zurich. After an acclimatization period, tumor xenografts were produced in 6-week old female CD1 nu/nu mice by subcutaneous injection in both shoulder regions of CHL-GLP-1 receptor positive cells (8 × 10^6 cells/mouse in PBS (100 μL, pH 7.4)) under 2%–3% isoflurane anaesthesia. Ex vivo biodistribution experiments were conducted three weeks after the inoculation. PET imaging experiments were performed five weeks after the inoculation. Two tumor bearing mice were injected with ^18F-2 (13.0 MBq in 80 and 100 μL PBS containing ≤ 5% ethanol, 1.3 and 1.9 nmol) via lateral tail vein. Anaesthesia was induced with 5% isoflurane (Abbott) in O2/air 5 min before PET/CT acquisition. Depth of anaesthesia and temperature were controlled as described by Honer et al. (Honer et al. [2004]). PET/CT scans were performed under 2–3% isoflurane anaesthesia with a GE VISTA eXplore PET/CT tomograph. […] Standardized uptake values (SUV) were calculated as a ratio of tissue radioactivity concentration (kBq/cm^3) and injected activity dose per gram body weight (kBq/g) at the scan start. Percentage injected dose per gram of tissue (%ID/g) was calculated using SUV values: SUV / body weight [g] × 100% = %ID/g.

Substance | metabolic half-life [1] | tumor to blood ratio [2] | Tumor to background ratio [3]
GLP-1: natural ligand of GLP-1R released from ileal L-cells | less than 2 min |  | 
His-Gly-Glu-Gly-Thr-Phe-Thr-Ser-Asp-Leu-Ser-Lys-Gln-Nle-Glu-Glu-Glu-Ala-Val-Arg-Leu-Phe-Ile-Glu-Trp-Leu-Lys-Asn-Gly-Gly-Pro-Ser-Ser-Pro-Ala-Pro-Pro-Pro-Ser-Lys-(N ^6 –2-(4-(di-tert-butylfluorosilyl)phenyl)acetyl)-NH 2 [^18F-2] |  | 4 ± 2 | ~ 3
